Legend:
[1] = system: L5/L6 spinal nerve ligation model of neuropathic pain (Chung model); experiment: Chung L5/L6 spinal nerve ligation model of neuropathic pain; format: in vivo, rat; conditions: rats, L5/L6 SNL
Description: (§1) The L5/L6 spinal nerve was surgically ligated and animals allowed to recover for a period of 7-10 days. During this period animals develop neuropathic pain. The reduction of paw withdrawal latency after an infrared thermal stimulus (post-SNL) was measured following the induction period for comparison with pre-surgery baseline levels (BL). Following drug administration, thermal hyperalgesia was measured at various time points.
as §1, with “tactile thresholds” for “paw withdrawal latency after an infrared thermal stimulus”, “tactile allodynia” for “thermal hyperalgesia”, “points with calibrated von-Frey filaments.” for “points.”
The experimental designs for the Chung Spinal Nerve Ligation SNL Model assay for neuropathic pain are depicted in FIGS. 1 and 2. Nerve ligation injury was performed according to the method described by Kim and Chung (Kim and Chung, Pain 50:355-363, 1992). This technique produces signs of neuropathic dysesthesias, including tactile allodynia, thermal hyperalgesia, and guarding of the affected paw. Rats were anesthetized with halothane, and the vertebrae over the L4 to S2 region were exposed. […]

[2] = molecular target: Nitric oxide synthase (neuronal, human recombinant) nNOS (Homo sapiens (Human), UniProt P29475); experiment: Human nNOS enzyme assay ([3H]-L-arginine to L-citrulline conversion); format: biochemical
Description: (§2) nNOS (Human), eNOS (Human) and iNOS (Human) Enzyme Assay
(§3) Primary stock solutions of test compounds at a concentration of 6 mM were prepared from the 2 to 5 mg powder. The primary stock solutions of each test compound were prepared freshly in distilled water on the day of study to obtain a final concentration of 6 mM. For determination of IC50 values, 12 test compound concentrations were prepared as 3-fold serial dilutions. Concentration range of test compound utilized for nNOS were 0.001 to 300 μM and for eNOS were 0.003 to 1000 μM. The vehicle of the test compound or inhibitor was used as blank control. For non-specific activity, 100 μM L-NMMA was used. Runs using the IC50 concentration of L-NAME were done in parallel as controls.
(§4) All incubations are performed in duplicate
(§5) The reaction mixture was prepared on ice by adding the following components with a micropipette to a polypropylene microcentrifuge tube: • 10 μL of test compound, inhibitor or control (vehicle or L-NMMA) solution; • 25 μL of Reaction Buffer {25 mM Tris-HCl, 0.6 μM BH4, 0.2 μM FMN, 0.2 μM FAD}; • 5 μL of 10 mM NADPH solution {1 mM} (freshly prepared in 10 mM Tris-HCl (pH 7.4); • 5 μL of 6 mM CaCl2 {600 W}; • 5 μL of 1 mM Calmodulin {100 W}; and • 5 μL of 0.02 μg/μL nNOS or 0.12 μg/μL eNOS.
(§6) The above reaction mixture was pre-incubated at room temperature for 15 mins.
(§7) The reaction was started by the addition of the substrate (in 5 μL containing 1 μCi of [^3H]-L-Arginine+2.5 μM of unlabeled L-Arginine) to the reaction mixture. Total reaction volume is 60 μL.
(§8) The reaction was mixed using a vortex mixer and incubate the above reaction mixture at 37° C. in an incubator for 30 minutes.
(§9) To stop the reaction, 400 μL of ice-cold Stop Buffer was added at the end of the incubation period.
(§10) The reaction was then mixed using a vortex mixer, and the reaction samples were transferred to spin cups, which were centrifuged using a microcentrifuge, at 13,000 rpm for 30 sec. at room temperature.
(§11) The spin cups were removed from the holder, 450 μL of eluate (containing the unbound L-citrulline) were transferred to scintillation vials. 3 mL of scintillation fluid were added and the radioactivity was quantified in a liquid scintillation counter.
(§12) Data was analyzed using a Sigmoidal dose-response (variable slope) curve to determine the IC50 value of the test compound. Y=Bottom+(Top−Bottom)/(1+10^((Log IC50−X)*Hill Slope))

[3] = system: dural inflammation model of migraine; experiment: Dural inflammation rat model of migraine; format: in vivo; conditions: rats, 3 mg/kg p.o., about 15 min pre-IS, measured up to 6 hours post IS
Description: These features mimic the characteristic often seen in migraineurs during a headache, especially when treatment is delayed, and the development of central sensitization has occurred (Burstein et al., Ann. Neurol. 47:614-624, 2000; Burstein et al., Brain, 123:1703-1709, 2000). Compound (8) was tested in a dural inflammation model of migraine according to previously described procedures (WO 2007/120830 or as described in US-2008-0031822-A1). Baseline paw withdrawal thresholds were recorded approximately 30 min before the IS administration by application of calibrated von Frey filaments to the hindpaws to measure tactile allodynia. Approximately 15 minutes pre-IS administration, the test compound in water was administered by oral gavage (1 mL/kg) at a dose of 3 mg/kg per os (p.o.). Measurements of tactile allodynia were recorded at 1 hour intervals up to 6 hours post IS administration.

[4] = molecular target: Nitric oxide synthase (endothelial, human recombinant) eNOS (Homo sapiens (Human), UniProt P29474); experiment: Human eNOS enzyme assay ([3H]-L-arginine to L-citrulline conversion); format: biochemical
Description: as §2, §3, §4, §5, §6, §7, §8, §9, §10, §11, §12

CNCCN1CCSc2cc(NC(=N)c3cccs3)ccc21 [Compound 8, N-(4-(2-(methylamino)ethyl)-3,4-dihydro-2H-benzo[b][1,4]thiazin-7-yl)thiophene-2-carboximidamide] was tested, and the “reversal of tactile allodynia” value ([1]; i.p. 30 mg/kg, von Frey filaments) was “reversal of tactile allodynia”, the “reversal of thermal hyperalgesia” value ([1]; i.p., text: e.g. 3 mg/kg, FIG. 3 legend: 30 mg/kg) was “clear effect” and the “Selectivity eNOS/nNOS” value ([2]; ratio of human eNOS IC50 to human nNOS IC50) was 531. For the same molecule, the IC50 ([2]; recombinant human nNOS) was 60 nM, the “antiallodynic effect (tactile allodynia, hindpaw)” value [3] was “antiallodynic effect” and the IC50 [4] was 33.5 µM.

From patent US8618286B2, “Benzoxazines, benzothiazines, and related compounds having NOS inhibitory activity” (NeurAxon, Inc., priority 2008, dated 2013)
